This experiment concerns the target human orexin type 2 receptor (hOX2R) (Homo sapiens (Human), UniProt O43614). Description: Measurement of orexin type 2 receptor agonist activity (Experimental Example 2-1, FLIPR TETRA, intracellular Ca2+). The conditions noted are these: CHO dhfr- cells expressing hOX2R; for Emax: read-out: Emax (%); for Emax at 30 µM: value at 30 uM concentration, orexin B as full agonist = 100%. The experiment is classed as cell-based.

[1] abbreviates: agonist activity, 10 nM human orexin B = 100%.

Sequence of human orexin type 2 receptor (hOX2R) (O43614 whole entry): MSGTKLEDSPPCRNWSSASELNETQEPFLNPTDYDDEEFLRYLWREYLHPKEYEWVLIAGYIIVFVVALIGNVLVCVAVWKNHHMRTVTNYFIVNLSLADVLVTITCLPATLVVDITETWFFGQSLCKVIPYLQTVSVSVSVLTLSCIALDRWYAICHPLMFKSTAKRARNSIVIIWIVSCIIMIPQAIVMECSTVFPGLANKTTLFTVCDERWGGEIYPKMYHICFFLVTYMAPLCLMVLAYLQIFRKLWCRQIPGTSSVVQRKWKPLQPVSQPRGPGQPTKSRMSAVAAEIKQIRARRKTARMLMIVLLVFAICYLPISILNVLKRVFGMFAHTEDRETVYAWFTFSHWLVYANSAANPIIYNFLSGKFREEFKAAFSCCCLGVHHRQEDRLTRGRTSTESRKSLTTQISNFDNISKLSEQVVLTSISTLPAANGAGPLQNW

For orientation: EC50 means the concentration that produces a half-maximal response. Low values mean higher potency in that assay, high ones lower potency in that assay. With `CS(=O)(=O)N[C@H]1CCCN(C(=O)OCC(F)(F)F)[C@H]1COC1CCN(c2ncccn2)CC1` [Example 305, 2,2,2-trifluoroethyl (2R,3S)-3-((methylsulfonyl)amino)-2-(((1-(pyrimidin-2-yl)piperidin-4-yl)oxy)methyl)piperidine-1-carboxylate], where the note is “FLIPR TETRA, Fluo-4AM”, the EC50 stood at 53 nM and the “Emax (%)” value was 106%.
Usually Emax stands for the maximal effect, on the per cent scale that the assay sets. Consider `COC(=O)N1CCC[C@H](NS(C)(=O)=O)[C@@H]1COC1CCN(c2ccccc2Cl)CC1` (relative stereo) [Example 167, methyl cis-2-(((1-(2-chlorophenyl)piperidin-4-yl)oxy)methyl)-3-((methylsulfonyl)amino)piperidine-1-carboxylate], for which, under “FLIPR TETRA, Fluo-4AM”, the EC50 worked out at 2400 nM and the Emax turned out to be 83%.
The molecule `COC(=O)N1CCC[C@H](NS(C)(=O)=O)[C@@H]1CO[C@H]1CC[C@@H](c2ccccc2C(F)(F)F)CC1` [Example 32, methyl (2R,3S)-3-((methylsulfonyl)amino)-2-(((cis-4-(2-(trifluoromethyl)phenyl)cyclohexyl)oxy)methyl)piperidine-1-carboxylate] returned an Emax at 30 µM of 102%. This molecule yielded an EC50 under setting [1] of 15 nM.
For `CS(=O)(=O)N[C@H]1CCCN[C@H]1CO[C@H]1CC[C@@H](c2cc(F)cc(F)c2F)CC1` [Example 239, N-((2R,3S)-2-(((cis-4-(2,3,5-trifluorophenyl)cyclohexyl)oxy)methyl)piperidin-3-yl)methanesulfonamide], for the setting “FLIPR TETRA, Fluo-4AM”, the EC50 was 280 nM and the maximal effect (Emax) came out at 102%.
`COC(=O)N1CCC[C@H](NS(C)(=O)=O)[C@@H]1CO[C@H]1CC[C@@H](c2ccccc2C(F)F)CC1` (relative stereo) [Example 322, methyl cis-2-(((cis-4-(2-(difluoromethyl)phenyl)cyclohexyl)-oxy)methyl)-3-((methylsulfonyl)amino)piperidine-1-carboxylate]: the “Emax (%)” value (FLIPR TETRA, Fluo-4AM) is reported as 71%.
With `COC(=O)N1CCC[C@H](NS(C)(=O)=O)[C@@H]1CO[C@H]1CC[C@@](O)(c2ccccc2)CC1` [Example 331, methyl cis-2-(((trans-4-hydroxy-4-phenylcyclohexyl)oxy)methyl)-3-((methylsulfonyl)amino)piperidine-1-carboxylate], where the note is “FLIPR TETRA, Fluo-4AM”, the Emax amounted to 98%.
On to `CC(C)OC(=O)N1CCC[C@H](NS(C)(=O)=O)[C@@H]1CO[C@@H]1CCN(c2ncccn2)C[C@H]1F` (relative stereo) [Example 341, isopropyl cis-2-(((trans-3-fluoro-1-(pyrimidin-2-yl)piperidin-4-yl)oxy)methyl)-3-((methylsulfonyl)amino)piperidine-1-carboxylate], for which, where the note is “FLIPR TETRA, Fluo-4AM”, the EC50 was 13 nM and the Emax worked out at 103%.
In the same order, the values of `CC(=O)N1CCC[C@H](NS(C)(=O)=O)[C@@H]1CO[C@H]1CC[C@@H](c2cccc(OC(F)(F)F)c2)CC1` (relative stereo) [Example 297, N-(cis-1-acetyl-2-(((cis-4-(3-(trifluoromethoxy)phenyl)cyclohexyl)oxy)methyl)piperidin-3-yl)methanesulfonamide] are 2100 nM and 76%.
In the same order, the values of `CS(=O)(=O)N[C@H]1CCCN(C(=O)C2CC2)[C@H]1CO[C@H]1CC[C@@H](c2c(F)ccc(F)c2F)CC1` [Example 258, N-((2R,3S)-1-(cyclopropylcarbonyl)-2-(((cis-4-(2,3,6-trifluorophenyl)cyclohexyl)oxy)methyl)piperidin-3-yl)methanesulfonamide] are 0.72 nM and 101%.
`COC(=O)N1CCC[C@H](NS(C)(=O)=O)[C@@H]1COC1CCN(c2ncccn2)CC1` (relative stereo) [Example 151, methyl cis-3-((methylsulfonyl)amino)-2-(((1-(pyrimidin-2-yl)piperidin-4-yl)oxy)methyl)piperidine-1-carboxylate]: under “FLIPR TETRA, Fluo-4AM”, the EC50 amounted to 490 nM and the Emax amounted to 107%.
As to `CN(C)S(=O)(=O)N[C@H]1CCCN[C@H]1CO[C@H]1CC[C@@H](c2ccccc2)CC1` (relative stereo) [Example 109, N,N-dimethyl-N′-(cis-2-(((cis-4-phenylcyclohexyl)oxy)methyl)piperidin-3-yl)sulfuric diamide], the Emax at 30 µM came out at 102%. The same molecule showed an EC50 under setting [1] of 480 nM.
For the molecule `CS(=O)(=O)N[C@H]1CCCN(C(=O)[C@@H]2C[C@@H]2F)[C@H]1COC1CCN(c2ccccc2F)CC1` [Example 221, N-(cis-1-(((1S,2S)-2-fluorocyclopropyl)carbonyl)-2-(((1-(2-fluorophenyl)piperidin-4-yl)oxy)methyl)piperidin-3-yl)methanesulfonamide], where the note is “FLIPR TETRA, Fluo-4AM”, the EC50 worked out at 1600 nM and the Emax worked out at 96%.
In the same order, the values of `CC(=O)N1CCC[C@H](NS(C)(=O)=O)[C@@H]1CO[C@H]1CC[C@@H](c2cccc(C#N)c2)CC1` (relative stereo) [Example 252, N-(cis-1-acetyl-2-(((cis-4-(3-cyanophenyl)cyclohexyl)oxy)methyl)piperidin-3-yl)methanesulfonamide] are 2900 nM and 93%.
In the same order, the values of `CC(=O)N1CCC[C@H](NS(C)(=O)=O)[C@@H]1CO[C@H]1CC[C@@H](c2ccccc2Cl)CC1` (relative stereo) [Example 334, N-(cis-1-acetyl-2-(((cis-4-(2-chlorophenyl)cyclohexyl)oxy)-methyl)piperidin-3-yl)methanesulfonamide] are 27 nM and 93%.
In the same order, the values of `CN(C)S(=O)(=O)N[C@H]1CCCN(C(=O)OCC(F)(F)F)[C@H]1COC1CCN(c2ncccn2)CC1` (relative stereo) [Example 315, 2,2,2-trifluoroethyl cis-3-((dimethylsulfamoyl)amino)-2-(((1-(pyrimidin-2-yl)piperidin-4-yl)oxy)methyl)piperidine-1-carboxylate] are 170 nM and 103%.
Turning to `CS(=O)(=O)N[C@H]1CCCN(C(=O)C2CCC2)[C@H]1COC1CCN(c2ccccc2F)CC1` (relative stereo) [Example 223, N-(cis-1-(cyclobutylcarbonyl)-2-(((1-(2-fluorophenyl)piperidin-4-yl)oxy)methyl)piperidin-3-yl)methanesulfonamide], where the note is “FLIPR TETRA, Fluo-4AM”, the EC50 stood at 1100 nM and the Emax came to 110%.
In the same order, the values of `CCNC(=O)N1CCC[C@H](NS(C)(=O)=O)[C@@H]1CO[C@H]1C[C@H](Oc2ccccc2)C1` (relative stereo) [Example 281, cis-N-ethyl-3-((methylsulfonyl)amino)-2-(((trans-3-phenoxycyclobutyl)oxy)methyl)piperidine-1-carboxamide] are 3300 nM and 81%.
In the same order, the values of `CC(=O)N1CCC[C@H](NS(C)(=O)=O)[C@@H]1CO[C@H]1CC[C@@H](c2cc(F)cc(F)c2F)CC1` [Example 243, N-((2R,3S)-1-acetyl-2-(((cis-4-(2,3,5-trifluorophenyl)cyclohexyl)oxy)methyl)piperidin-3-yl)methanesulfonamide] are 17 nM and 97%.
In the same order, the values of `CS(=O)(=O)N[C@H]1CCCN(C(=O)C2CCCC2)[C@H]1COC1CCN(c2ccccc2F)CC1` (relative stereo) [Example 229, N-(cis-1-(cyclopentylcarbonyl)-2-(((1-(2-fluorophenyl)piperidin-4-yl)oxy)methyl)piperidin-3-yl)methanesulfonamide] are 1500 nM and 85%.
`CS(=O)(=O)N[C@H]1CCCN[C@H]1CO[C@H]1CC[C@@H](c2c(F)cccc2F)CC1` [Example 13, N-((2R,3S)-2-(((cis-4-(2,6-difluorophenyl)cyclohexyl)oxy)methyl)piperidin-3-yl)methanesulfonamide] came in with an Emax at 30 µM of 115%. This molecule also had an EC50 under setting [1] of 130 nM.
As for `CS(=O)(=O)N[C@H]1CCCN(C(=O)Cn2cccn2)[C@H]1CO[C@H]1CC[C@@H](c2ccccc2)CC1` (relative stereo) [Example 138, N-(cis-2-(((cis-4-phenylcyclohexyl)oxy)methyl)-1-(1H-pyrazol-1-ylacetyl)piperidin-3-yl)methanesulfonamide], where the note is “FLIPR TETRA, Fluo-4AM”, a half-maximal effect (EC50) was put at 22 nM and the Emax is 94%.
`CS(=O)(=O)N[C@H]1CCCN[C@H]1CO[C@H]1CC[C@@H](c2ccccc2C(F)(F)F)CC1` [Example 23, N-((2R,3S)-2-(((cis-4-(2-(trifluoromethyl)phenyl)cyclohexyl)oxy)methyl)piperidin-3-yl)methanesulfonamide]: the Emax at 30 µM was 90%. Besides, under setting [1], it took 1200 nM to reach a half-maximal effect (EC50).
`COC(=O)N1CCC[C@H](NS(C)(=O)=O)[C@@H]1COC1CCN(c2c(Cl)cccc2Cl)CC1` (relative stereo) [Example 186, methyl cis-2-(((1-(2,6-dichlorophenyl)piperidin-4-yl)oxy)methyl)-3-((methylsulfonyl)amino)piperidine-1-carboxylate]: for the setting “FLIPR TETRA, Fluo-4AM”, a half-maximal effect (EC50) was put at 3300 nM and the Emax was found to be 86%.
Molecule `CC(C)[C@H]1CC[C@@H](OC[C@H]2[C@@H](NS(C)(=O)=O)CCCN2S(=O)(=O)c2cnn(C)c2)CC1` (relative stereo) [Example 67, N-(cis-2-(((cis-4-isopropylcyclohexyl)oxy)methyl)-1-((1-methyl-1H-pyrazol-4-yl)sulfonyl)piperidin-3-yl)methanesulfonamide] returned a maximal effect (Emax) at 30 µM of 93%.
The molecule `CC(C)[C@H]1CC[C@@H](OC[C@H]2[C@@H](NS(C)(=O)=O)CCCN2C(=O)C2CCC(=O)N2)CC1` (stereo partly drawn) [Example 87, N-(cis-2-(((cis-4-isopropylcyclohexyl)oxy)methyl)-1-(5-oxoprolyl)piperidin-3-yl)methanesulfonamide] registered an Emax at 30 µM of 82%. In addition, a half-maximal effect under setting [1] (EC50) was put at 4900 nM.
For `CS(=O)(=O)N[C@H]1CCCN(C(=O)C2CC2)[C@H]1COC1CCN(c2ccccc2F)CC1` [Example 246, N-((2R,3S)-1-(cyclopropylcarbonyl)-2-(((1-(2-fluorophenyl)piperidin-4-yl)oxy)methyl)piperidin-3-yl)methanesulfonamide], where the note is “FLIPR TETRA, Fluo-4AM”, the EC50 turned out to be 730 nM and the Emax was 113%.

The record behind these values is patent US10287305B2, “Substituted piperidine compound and use thereof” (Takeda Pharmaceutical Company Limited, priority 2016, dated 2019).
